# Test results as given in patent publication US20110269763A1, “CRTH2 receptor ligands for medicinal uses” (7TM Pharma A/S, priority 2004, published 2011).
# Legend:
# human CRTH2 [1] = biological target: T1, human CRTH2 (Homo sapiens, UniProt Q9Y5Y4, V204A); test: Functional antagonist BRET assay on HEK293 cells stably expressing human CRTH2-Rluc and GFP2-β-arr2; format: cell-based; design: expressed in transfected cells; settings: BRET, antagonist incubated 15 minutes prior to agonist; read-out: Antag. IC50
# T1 sequence (Q9Y5Y4 1-395 V204A): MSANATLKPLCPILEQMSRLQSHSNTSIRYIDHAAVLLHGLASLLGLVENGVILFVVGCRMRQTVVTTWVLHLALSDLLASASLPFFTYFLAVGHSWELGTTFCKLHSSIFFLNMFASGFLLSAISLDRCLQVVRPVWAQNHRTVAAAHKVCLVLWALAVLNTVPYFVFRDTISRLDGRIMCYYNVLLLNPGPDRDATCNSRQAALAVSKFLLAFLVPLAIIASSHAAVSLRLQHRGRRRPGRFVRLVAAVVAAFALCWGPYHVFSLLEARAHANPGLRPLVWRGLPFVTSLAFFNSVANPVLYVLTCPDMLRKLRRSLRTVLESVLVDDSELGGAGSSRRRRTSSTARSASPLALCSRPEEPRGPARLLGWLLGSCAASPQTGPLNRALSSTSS
# Procedure, shortened: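 Cells (2×10^6/mL in D-PBS with glucose) were preincubated 15 min with antagonist at 1% DMSO, then agonist and DeepBlueC were co-injected. Emission at 400 and 515 nm was read 5 s later, and the mBRET ratio (515/400 nm) was used to derive IC50 from concentration–response curves.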
# human CRTH2 [2] = biological target: T1, human CRTH2; test: Receptor binding assay: [3H]PGD2 competition binding on whole COS-7 cells transiently transfected with CRTH2 (also stable HEK293 cells); design: expressed in transfected cells; host or cells: COS-7 (transient, calcium phosphate); settings: competition with 0.1 nM [3H]PGD2, whole cells, 3 h at 4° C.
# Procedure, shortened: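 Whole COS-7 cells transiently transfected with human CRTH2 (calcium phosphate), or stable HEK293 cells, competed against 0.1 nM [3H]PGD2 in HBSS/10 mM HEPES with 1% DMSO, 3 h at 4 °C. Nonspecific binding with 10 μM PGD2; scintillation counting, duplicates. IC50 from curve fitting.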
Compound,IC50 (human CRTH2 [1]) [nM],IC50 (human CRTH2 [2]) [nM]
"O=C(O)COc1ccc(Br)cc1CN1CC(=O)N(Cc2ccc(Cl)cc2)C1=O [D139, 4-Bromo-2-[3-(4-chlorobenzyl)-2,4-dioxoimidazolidin-1-ylmethyl]phenoxyacetic acid]",< 500,< 500
"O=C(O)COc1ccc(Br)cc1CN1CC(=O)N(CCc2ccccc2)C1=O [D140, 4-Bromo-2-(2,4-dioxo-3-phenethylimidazolidin-1-ylmethyl)phenoxyacetic acid]",500 to 5000,< 500
"O=C(O)COc1ccc(Br)cc1CC1SC(=O)N(Cc2ccc(Cl)cc2)C1=O (stereo not shown) [D141, 4-Bromo-2-[3-(4-chlorobenzyl)-2,4-dioxothiazolidin-5-ylmethyl]phenoxyacetic acid]",< 500,< 500
"Cc1ccc(CN2C(=O)SC(Cc3cc(Br)ccc3OCC(=O)O)C2=O)cc1 (stereo not shown) [D142, 4-Bromo-2-[3-(4-methylbenzyl)-2,4-dioxothiazolidin-5-ylmethyl]phenoxyacetic acid]",< 500,< 500
"O=C(O)COc1ccc(Br)cc1CC1SC(=O)N(CC(=O)c2ccc(Cl)cc2)C1=O (stereo not shown) [D143, 4-Bromo-2-{3-[2-(4-chlorophenyl)-2-oxoethyl]-2,4-dioxothiazolidin-5-ylmethyl}phenoxyacetic acid]",< 500,< 500
"O=C(O)COc1ccc(Br)cc1CC1SC(=O)N(Cc2cccc(Cl)c2)C1=O (stereo not shown) [D144, 4-Bromo-2-[3-(3-chlorobenzyl)-2,4-dioxothiazolidin-5-ylmethyl]phenoxyacetic acid]",< 500,< 500
"O=C(O)COc1ccc(Br)cc1CC1SC(=O)N(Cc2ccncc2)C1=O (stereo not shown) [D145, 4-Bromo-2-(2,4-dioxo-3-pyridin-4-ylmethylthiazolidin-5-ylmethyl)phenoxyacetic acid]",< 500,< 500
"CC1(Cc2cc(Br)ccc2OCC(=O)O)SC(=O)N(Cc2ccc(Cl)cc2)C1=O (stereo not shown) [D146, 4-Bromo-2-[3-(4-chlorobenzyl)-5-methyl-2,4-dioxothiazolidin-5-ylmethyl]phenoxyacetic acid]",< 500,< 500
O=C(O)COc1ccccc1C=NNC(=O)CSc1nnc(-c2ccc(Cl)cc2)n1-c1ccccc1 [D156],500 to 5000,< 500
{4-Bromo-2-[1-(4-bromo-2-chlorophenyl)-1H-pyrazole-4-carbonyl]phenoxy}acetic acid [D67],< 500,< 500

# Second part, the compound after the results:
IC50 (human CRTH2 [1]) [nM],IC50 (human CRTH2 [2]) [nM],Compound
< 500,< 500,O=C(O)COc1ccccc1C=NNC(=O)COc1ccc(Cl)cc1Cl [D149]
> 5000,< 500,O=C(O)COc1ccc(Br)cc1C=NNc1cccc2cccnc12 [D150]
> 5000,< 500,O=C(O)COc1ccc(Br)cc1C=NNc1ccccn1 [D151]
500 to 5000,< 500,O=C(O)COc1ccc(Br)cc1C=NNc1nncc(-c2ccccc2)n1 [D152]
> 5000,500 to 5000,COc1ccc(-c2cnnc(NN=Cc3ccccc3OCC(=O)O)n2)cc1 [D153]
< 500,< 500,O=C(O)COc1ccccc1C=NNC(=O)c1ccc2ccccc2c1O [D154]
500 to 5000,< 500,O=C(O)COc1ccccc1C=NNC(=O)c1ccnc(-c2ccccc2)c1 [D155]
